Assay results from the supplement of paper PMC10307832.

Assays:
Experiment in all cases: relative viability (nuclei count vs DMSO), 5 days (fraction); higher = more cells survive
[1] = compound: Nc1ccn([C@@H]2O[C@H](CO)[C@@H](O)C2(F)F)c(=O)n1 [Gemcitabine] + CCNC(=O)c1noc(-c2cc(C(C)C)c(O)cc2O)c1-c1ccc(CN2CCOCC2)cc1 [Luminespib] (partner 0.01 µM)
In short: (§1)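 Nuclei were stained with Hoechst during a one-step fixation (final 0.05% Triton X-100, 1% formaldehyde, 1 ug/ml Hoechst) carried out 5 days after dosing, then counted on 4× images. The cells, lung cancer lines in 1536-well plates, had been dosed by pin tool the day after seeding with one drug alone or a fixed anchor-drug dose plus five library-drug doses (not always all listed) in √10 steps. Relative viability is the nuclei count in treated wells divided by that in vehicle wells, and each value is the median of duplicate plates.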

[2] = compound: Nc1ccn([C@@H]2O[C@H](CO)[C@@H](O)C2(F)F)c(=O)n1 [Gemcitabine] + CS(=O)(=O)CCNCc1ccc(-c2ccc3ncnc(Nc4ccc(OCc5cccc(F)c5)c(Cl)c4)c3c2)o1 [Lapatinib] (partner 2 µM)
In short: as §1

[3] = compound: Nc1ccn([C@@H]2O[C@H](CO)[C@@H](O)C2(F)F)c(=O)n1 [Gemcitabine] + Nc1ncn([C@H]2C[C@H](O)[C@@H](CO)O2)c(=O)n1 [Decitabine] (partner 2 µM)
In short: as §1

[4] = compound: Nc1ccn([C@@H]2O[C@H](CO)[C@@H](O)C2(F)F)c(=O)n1 [Gemcitabine] + O=C(c1cc(Cc2n[nH]c(=O)c3ccccc23)ccc1F)N1CCN(C(=O)C2CC2)CC1 [Olaparib] (partner 8 µM)
In short: as §1

## COR-L23
[1]; first compound 0.001 µM
  relative viability: 0.742
[1]; first compound 0.003162 µM
  relative viability: 0.704
[1]; first compound 0.01 µM
  relative viability: 0.311
[1]; first compound 0.03162 µM
  relative viability: 0.143
[1]; first compound 0.1 µM
  relative viability: 0.0841
[2]; first compound 0.001 µM
  relative viability: 1.02
[2]; first compound 0.003162 µM
  relative viability: 0.896
[2]; first compound 0.01 µM
  relative viability: 0.72
[2]; first compound 0.03162 µM
  relative viability: 0.105
[2]; first compound 0.1 µM
  relative viability: 0.105
[3]; first compound 0.001 µM
  relative viability: 0.423
[3]; first compound 0.003162 µM
  relative viability: 0.463
[3]; first compound 0.01 µM
  relative viability: 0.443
[3]; first compound 0.03162 µM
  relative viability: 0.217
[3]; first compound 0.1 µM
  relative viability: 0.146
[4]; first compound 0.001 µM
  relative viability: 0.35
[4]; first compound 0.003162 µM
  relative viability: 0.31
[4]; first compound 0.01 µM
  relative viability: 0.141
[4]; first compound 0.03162 µM
  relative viability: 0.0915
[4]; first compound 0.1 µM
  relative viability: 0.0858

## NCI-H1944
[1]; first compound 0.001 µM
  relative viability: 0.73
[1]; first compound 0.003162 µM
  relative viability: 0.764
[1]; first compound 0.01 µM
  relative viability: 0.758
[1]; first compound 0.03162 µM
  relative viability: 0.458
[1]; first compound 0.1 µM
  relative viability: 0.183
[2]; first compound 0.001 µM
  relative viability: 0.848
[2]; first compound 0.003162 µM
  relative viability: 0.847
[2]; first compound 0.01 µM
  relative viability: 0.804
[2]; first compound 0.03162 µM
  relative viability: 0.45
[2]; first compound 0.1 µM
  relative viability: 0.24
[3]; first compound 0.001 µM
  relative viability: 0.44
[3]; first compound 0.003162 µM
  relative viability: 0.409
[3]; first compound 0.01 µM
  relative viability: 0.443
[3]; first compound 0.03162 µM
  relative viability: 0.381
[3]; first compound 0.1 µM
  relative viability: 0.193
[4]; first compound 0.001 µM
  relative viability: 0.459
[4]; first compound 0.003162 µM
  relative viability: 0.469
[4]; first compound 0.01 µM
  relative viability: 0.358
[4]; first compound 0.03162 µM
  relative viability: 0.21
[4]; first compound 0.1 µM
  relative viability: 0.134

## NCI-H2405
[1]; first compound 0.001 µM
  relative viability: 0.73
[1]; first compound 0.003162 µM
  relative viability: 0.746
[1]; first compound 0.01 µM
  relative viability: 0.587
[1]; first compound 0.03162 µM
  relative viability: 0.207
[1]; first compound 0.1 µM
  relative viability: 0.216
[2]; first compound 0.001 µM
  relative viability: 1.03
[2]; first compound 0.003162 µM
  relative viability: 0.445
[2]; first compound 0.01 µM
  relative viability: 0.362
[2]; first compound 0.03162 µM
  relative viability: 0.243
[2]; first compound 0.1 µM
  relative viability: 0.162
[3]; first compound 0.001 µM
  relative viability: 0.735
[3]; first compound 0.003162 µM
  relative viability: 0.676
[3]; first compound 0.01 µM
  relative viability: 0.427
[3]; first compound 0.03162 µM
  relative viability: 0.31
[3]; first compound 0.1 µM
  relative viability: 0.226
[4]; first compound 0.001 µM
  relative viability: 0.842
[4]; first compound 0.003162 µM
  relative viability: 0.766
[4]; first compound 0.01 µM
  relative viability: 0.361
[4]; first compound 0.03162 µM
  relative viability: 0.23
[4]; first compound 0.1 µM
  relative viability: 0.179

## SK-LU-1
[1]; first compound 0.001 µM
  relative viability: 0.175
[1]; first compound 0.003162 µM
  relative viability: 0.197
[1]; first compound 0.01 µM
  relative viability: 0.188
[1]; first compound 0.03162 µM
  relative viability: 0.18
[1]; first compound 0.1 µM
  relative viability: 0.169
[2]; first compound 0.001 µM
  relative viability: 0.89
[2]; first compound 0.003162 µM
  relative viability: 0.509
[2]; first compound 0.01 µM
  relative viability: 0.162
[2]; first compound 0.03162 µM
  relative viability: 0.134
[2]; first compound 0.1 µM
  relative viability: 0.195
[3]; first compound 0.001 µM
  relative viability: 0.623
[3]; first compound 0.003162 µM
  relative viability: 0.635
[3]; first compound 0.01 µM
  relative viability: 0.376
[3]; first compound 0.03162 µM
  relative viability: 0.24
[3]; first compound 0.1 µM
  relative viability: 0.246
[4]; first compound 0.001 µM
  relative viability: 0.431
[4]; first compound 0.003162 µM
  relative viability: 0.188
[4]; first compound 0.01 µM
  relative viability: 0.181
[4]; first compound 0.03162 µM
  relative viability: 0.183
[4]; first compound 0.1 µM
  relative viability: 0.168

## EMC-BAC-2
[1]; first compound 0.001 µM
  relative viability: 1.29
[1]; first compound 0.003162 µM
  relative viability: 1.17
[1]; first compound 0.01 µM
  relative viability: 1.04
[1]; first compound 0.03162 µM
  relative viability: 0.222
[1]; first compound 0.1 µM
  relative viability: 0.194
[2]; first compound 0.001 µM
  relative viability: 0.923
[2]; first compound 0.003162 µM
  relative viability: 0.979
[2]; first compound 0.01 µM
  relative viability: 0.86
[2]; first compound 0.03162 µM
  relative viability: 0.198
[2]; first compound 0.1 µM
  relative viability: 0.159
[3]; first compound 0.001 µM
  relative viability: 0.965
[3]; first compound 0.003162 µM
  relative viability: 0.936
[3]; first compound 0.01 µM
  relative viability: 0.726
[3]; first compound 0.03162 µM
  relative viability: 0.356
[3]; first compound 0.1 µM
  relative viability: 0.262
[4]; first compound 0.001 µM
  relative viability: 0.534
[4]; first compound 0.003162 µM
  relative viability: 0.578
[4]; first compound 0.01 µM
  relative viability: 0.316
[4]; first compound 0.03162 µM
  relative viability: 0.181
[4]; first compound 0.1 µM
  relative viability: 0.201

## NCI-H1650
[1]; first compound 0.001 µM
  relative viability: 0.197
[1]; first compound 0.003162 µM
  relative viability: 0.185
[1]; first compound 0.01 µM
  relative viability: 0.177
[1]; first compound 0.03162 µM
  relative viability: 0.197
[1]; first compound 0.1 µM
  relative viability: 0.177
[2]; first compound 0.001 µM
  relative viability: 0.669
[2]; first compound 0.003162 µM
  relative viability: 0.706
[2]; first compound 0.01 µM
  relative viability: 0.406
[2]; first compound 0.03162 µM
  relative viability: 0.179
[2]; first compound 0.1 µM
  relative viability: 0.17
[3]; first compound 0.001 µM
  relative viability: 0.467
[3]; first compound 0.003162 µM
  relative viability: 0.369
[3]; first compound 0.01 µM
  relative viability: 0.239
[3]; first compound 0.03162 µM
  relative viability: 0.222
[3]; first compound 0.1 µM
  relative viability: 0.155
[4]; first compound 0.001 µM
  relative viability: 0.886
[4]; first compound 0.003162 µM
  relative viability: 0.522
[4]; first compound 0.01 µM
  relative viability: 0.479
[4]; first compound 0.03162 µM
  relative viability: 0.12
[4]; first compound 0.1 µM
  relative viability: 0.122

## NCI-H596
[1]; first compound 0.001 µM
  relative viability: 1.23
[1]; first compound 0.003162 µM
  relative viability: 0.949
[1]; first compound 0.01 µM
  relative viability: 0.323
[1]; first compound 0.03162 µM
  relative viability: 0.31
[1]; first compound 0.1 µM
  relative viability: 0.305
[2]; first compound 0.001 µM
  relative viability: 1.01
[2]; first compound 0.003162 µM
  relative viability: 1.07
[2]; first compound 0.01 µM
  relative viability: 0.739
[2]; first compound 0.03162 µM
  relative viability: 0.424
[2]; first compound 0.1 µM
  relative viability: 0.373
[3]; first compound 0.001 µM
  relative viability: 1.15
[3]; first compound 0.003162 µM
  relative viability: 0.973
[3]; first compound 0.01 µM
  relative viability: 0.763
[3]; first compound 0.03162 µM
  relative viability: 0.449
[3]; first compound 0.1 µM
  relative viability: 0.466
[4]; first compound 0.001 µM
  relative viability: 0.733
[4]; first compound 0.003162 µM
  relative viability: 0.714
[4]; first compound 0.01 µM
  relative viability: 0.384
[4]; first compound 0.03162 µM
  relative viability: 0.336
[4]; first compound 0.1 µM
  relative viability: 0.311

## LCLC-97TM1
[1]; first compound 0.001 µM
  relative viability: 0.813
[1]; first compound 0.003162 µM
  relative viability: 0.86
[1]; first compound 0.01 µM
  relative viability: 0.334
[1]; first compound 0.03162 µM
  relative viability: 0.202
[1]; first compound 0.1 µM
  relative viability: 0.129
[2]; first compound 0.001 µM
  relative viability: 0.829
[2]; first compound 0.003162 µM
  relative viability: 0.683
[2]; first compound 0.01 µM
  relative viability: 0.178
[2]; first compound 0.03162 µM
  relative viability: 0.0781
[2]; first compound 0.1 µM
  relative viability: 0.0994
[3]; first compound 0.001 µM
  relative viability: 0.235
[3]; first compound 0.003162 µM
  relative viability: 0.206
[3]; first compound 0.01 µM
  relative viability: 0.143
[3]; first compound 0.03162 µM
  relative viability: 0.104
[3]; first compound 0.1 µM
  relative viability: 0.0854
[4]; first compound 0.001 µM
  relative viability: 0.331
[4]; first compound 0.003162 µM
  relative viability: 0.178
[4]; first compound 0.01 µM
  relative viability: 0.0884
[4]; first compound 0.03162 µM
  relative viability: 0.0632
[4]; first compound 0.1 µM
  relative viability: 0.0703
